Data reported in patent US9931335B2, “Desethylhydroxychloroquine for the treatment of diseases associated with inflammation” (The Board of Trustees of the Leland Stanford Junior …, priority 2013, dated 2018).
“Also recorded” adds a separate entry of the source. Where a name gives a salt, the structure may show the parent alone.

Tests used:
[1] = system: diet-induced obesity in C57BL/6 mice; assay: Mouse diet-induced obesity: type II diabetes, hyperlipidemia and metabolic syndrome; assay type: in vivo; conditions: 10 mg/kg/day, 6 weeks, vs vehicle; for blood glucose: two-tailed T test
Procedure: To evaluate treatment with DHCQ and HCQ on a mouse model of diet-induced type II diabetes, hyperlipidemia and metabolic syndrome, C57BL/6 mice (8 per group) were fed a high-fat “western-style” diet (60% caloric content from fat; Taconic). In an analogous fashion to that in Example 6, two weeks following initiation of the high-fat diet groups of mice were initiated on treatment with vehicle control, HCQ (10 mg/kg/day) or the HCQ metabolites DHCQ (10 mg/kg/day), DCQ (10 mg/kg/day), or BDCQ (10 mg/kg/day). After 6 weeks of treatment, blood was collected for analysis of glucose, triglyceride, and cholesterol levels.

ARPE-19 cells = system: ARPE-19 cells
Procedure: The major serious risk to long term administration of hydroxychloroquine is retinal accumulation and subsequent ocular toxicity (Terahi et al, 2008. Semin Opthal. (3):201-208. PMID). The ocular deposition of HCQ, DHCQ, and BDCQ was evaluated by direct retinal cellular toxicity by incubating equivalent concentrations of these molecules with the retinal pigmented epithelial cell line ARPE-19. ARPE-19 is a human retinal pigment epithelial cell line with differentiated properties (Dunn et al., Exp Eye Res. 1996 62(2):155-69). ARPE-19 cells were grown to 90% confluence, and then exposed to 10 µg/ml of HCQ, DHCQ, BDCQ, or vehicle control for 24 hours, following which microscopic analysis and photomicroscopy was performed at 40× power.
As described above, ARPE-19 cells were grown to 90% confluence then exposed to 10 μg/ml HCQ, DHCQ, BDCQ, or vehicle control for 24 hours followed by quantitation of cell death by lactate dehydrogenase (LDH) release assay (Abcam).

[2] = system: collagen-induced arthritis (CIA) in DBA/1 mice; assay: Collagen-induced arthritis (CIA) mouse model for RA, treatment from first immunization; assay type: in vivo; conditions: 50 mg/kg/day oral gavage, 100 mg/kg/day loading day 14-21; vs vehicle, Mann Whitney U test P<0.05
[3] = system: DMM-induced OA in C57BL6 (B6) mice; assay: Destabilization of the medial meniscus (DMM) mouse model of osteoarthritis; assay type: in vivo; conditions: aminoquinolines 100 mg/kg/day, atorvastatin 40 mg/kg/day, oral gavage from 1 week after DMM, 3 months; vs vehicle, two-tailed T test
Procedure: One week following surgical induction, treatment was initiated with vehicle control, hydroxychloroquine (HCQ), or desethylhydroxychloroquine (DHCQ) dosed at 100 mg/kg/day by oral gavage (once per day). After 3 months, mice were sacrificed, joints harvested, joint sections cut, and tissue sections stained with safranin-O. An examiner blinded to treatment used microscopy to score the severity of OA. The “Cartilage Degeneration Score” (also known as the “OA score”, “Severity Score” and “Histology Score”) was determined by a blinded examiner, and the two-tailed T test used to determine if there were statistical differences in the Cartilage Degeneration Scores between groups.
The histologic sections generated at the termination of the mouse OA experiment presented above and in FIG. 5 were subject to blinded scoring for the “Osteophyte Score” (measure of the amount of osteophyte or ectopic bone formation) and “Synovitis Score” (measure of the amount of synovial and joint inflammation). The scores between groups were compared by two-tailed T test.
Experiments were performed under protocols approved by the Stanford University Committee of Animal Research and in accordance with NIH guidelines. Murine OA was generated by surgically by destabilization of the DMM (Glasson, S., S., et al., Osteoarthritis Cartilage, 15: 1061-1069 (2007)).
Mice were euthanized 3 months after surgery. Their stifle joints were decalcified in EDTA solution, fixed in 4% paraformaldehyde, and embedded in paraffin. Serial 4 micron sections were cut and stained with toluidine blue. Scoring of arthritis in these histology sections was done according to a modified version of previously described composite scoring systems (Kamekura, S., et al. Osteoarthritis Cartilage 13: 632-641 (2005); Bendele, A. M., J Musculoskelet Neuronal Interact., 1: 363-376 (2001)). The “OA Score” was calculated as follows: cartilage degeneration (0-4) was multiplied by the width (1=1/3, 2=2/3, and 3=3/3 of surface area) of each third of the femoral-medial and tibial-medial condyles, and the scores for the 6 regions were summed. To evaluate osteophyte (ectopic bone) formation, we scored toluidine-blue-stained sections according to a previously described scoring system (Kamekura, S., et al. Osteoarthritis development in novel experimental mouse models induced by knee joint instability. Osteoarthritis Cartilage 13, 632-641 (2005)): 0, none; 1, formation of cartilage-like tissues; 2, increase of cartilaginous matrix; 3, endochondral ossification. To evaluate synovitis, we scored H&E-stained sections according to a previously described scoring system (Blom, A. B., et al. Synovial lining macrophages mediate osteophyte formation during experimental osteoarthritis. Osteoarthritis Cartilage 12, 627-635 (2004)): 0, no changes compared to normal joints; 1, thickening of the synovial lining and some influx of inflammatory cells; 2, thickening of the synovial lining and intermediate influx of inflammatory cells; and 3, profound thickening of the synovial lining (more than four cell layers) and maximal observed influx of inflammatory cells. Scores for osteophyte formation and synovitis were recorded for the femoral-medial and the tibial-medial condyles on the operated side of the joint, and the scores for the two regions were summed and statistical comparisons performed using a two-tailed T test.
Treatment was started 1 week after surgical induction of destabilization of the medial meniscus (DMM), a time point at which mice were at increased risk for the development of OA.

retinal toxicity = conditions: cited from earlier work

Row | Structure (SMILES) | total cholesterol [1] | triglycerides [1] | blood glucose [1] | arthritis score (development of disease and disease activity) [2] | also measured
1 | CC(CCCN)Nc1ccnc2cc(Cl)ccc12 (centres unmarked) [BDCQ, bisdesethylchloroquine] | did not result in statistical reductions | did not result in statistical reductions | did not result in statistical reductions in blood glucose | not associated with statistical protection or reduction in disease severity | ARPE-19 cellular toxicity by microscopy (ARPE-19 cells): increased cytotoxicity and death
2 | CC(C)c1c(C(=O)Nc2ccccc2)c(-c2ccccc2)c(-c2ccc(F)cc2)n1CC[C@@H](O)C[C@@H](O)CC(=O)O [atorvastatin, reference compound] |  |  |  |  | Cartilage Degeneration Score (OA score) [3]: only resulted in trends towards improvement; also recorded: did not result in a statistically significant reduction in the severity of OA
3 | CCN(CCO)CCCC(C)Nc1ccnc2cc(Cl)ccc12 (centres unmarked) [HCQ sulfate, hydroxychloroquine sulfate] |  |  |  |  | incidence of retinal toxicity after 5 years (retinal toxicity; treated humans, conventional doses): 0.5-1%; incidence of retinal toxicity after 10-15 years (retinal toxicity; treated humans): approximately 2%; physician discontinuation for earlier eye problems over 5 years (retinal toxicity; treated patients): ~7%
4 | CCN(CC)CCCC(C)Nc1ccnc2cc(Cl)ccc12 (centres unmarked) [chloroquine] |  |  |  |  | rates of retinal toxicity relative to HCQ (retinal toxicity; in vivo): Considerably higher rates of toxicity
5 | CCNCCCC(C)Nc1ccnc2cc(Cl)ccc12 (centres unmarked) [DCQ, desethylchloroquine] | did not result in statistical reductions | did not result in statistical reductions | did not result in statistical reductions in blood glucose | not associated with statistical protection or reduction in disease severity | 
